Measured values reported in ChEMBL document CHEMBL1201862, “PubChem BioAssay data set” (2004).
Values belong to the molecule of their own block, whether it stands above or below them. Active and inactive are the calls of the source.

Columns and labels:
[1] = target: T1, RNA-binding protein pos-1 (Caenorhabditis elegans, UniProt G5EF15); experiment: disruptors of C. elegans POS-1 RNA interaction – biochemical, fluorescence polarization, dose response (AID 1964);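 note: purified POS-1 fused to maltose binding protein made in E. coli; potency of compounds blocking POS-1 binding to fluorescent RNA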
T1 sequence (G5EF15 whole entry): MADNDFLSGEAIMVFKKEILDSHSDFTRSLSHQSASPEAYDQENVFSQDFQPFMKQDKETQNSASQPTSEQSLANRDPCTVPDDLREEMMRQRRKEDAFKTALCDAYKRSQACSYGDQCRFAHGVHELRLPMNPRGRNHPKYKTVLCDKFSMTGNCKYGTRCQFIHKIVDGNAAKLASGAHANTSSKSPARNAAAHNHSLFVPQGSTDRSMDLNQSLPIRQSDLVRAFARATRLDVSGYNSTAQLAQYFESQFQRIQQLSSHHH

[2] = target: T2, Zinc finger protein mex-5 (Caenorhabditis elegans, UniProt Q9XUB2); experiment: potency of MEX-5 RNA-binding blockers – biochemical, C. elegans, fluorescence polarization, dose response (AID 1960)
T2 sequence (Q9XUB2 whole entry): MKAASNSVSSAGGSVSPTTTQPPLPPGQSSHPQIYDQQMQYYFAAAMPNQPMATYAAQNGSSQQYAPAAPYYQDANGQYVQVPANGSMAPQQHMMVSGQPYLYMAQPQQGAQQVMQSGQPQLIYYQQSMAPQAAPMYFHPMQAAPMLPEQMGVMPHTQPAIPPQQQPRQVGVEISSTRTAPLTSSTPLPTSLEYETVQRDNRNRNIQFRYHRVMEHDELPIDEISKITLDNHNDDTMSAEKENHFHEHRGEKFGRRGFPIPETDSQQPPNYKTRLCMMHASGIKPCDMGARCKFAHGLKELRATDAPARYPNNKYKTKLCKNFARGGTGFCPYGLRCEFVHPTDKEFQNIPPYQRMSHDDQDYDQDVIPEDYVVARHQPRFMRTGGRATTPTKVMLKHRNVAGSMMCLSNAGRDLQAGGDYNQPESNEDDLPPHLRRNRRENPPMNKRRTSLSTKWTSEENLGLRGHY

[3] = target: T3, Calpain-2 catalytic subunit (Sus scrofa, UniProt P43367); experiment: m-calpain protease blockers, concentration series – biochemical, fluorogenic peptide substrate, dose response (AID 1420); assay type: functional
T3 sequence (P43367 whole entry): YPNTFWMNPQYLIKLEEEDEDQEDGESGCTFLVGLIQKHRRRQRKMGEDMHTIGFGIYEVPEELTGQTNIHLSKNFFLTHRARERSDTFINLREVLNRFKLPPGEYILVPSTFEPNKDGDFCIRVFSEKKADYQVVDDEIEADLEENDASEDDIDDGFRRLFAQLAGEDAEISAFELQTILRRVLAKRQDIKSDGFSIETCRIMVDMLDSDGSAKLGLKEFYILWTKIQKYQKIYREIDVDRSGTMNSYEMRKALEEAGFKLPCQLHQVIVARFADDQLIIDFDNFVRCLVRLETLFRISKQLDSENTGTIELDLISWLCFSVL

Cysteine protease ATG4B = target: T4, Cysteine protease ATG4B (Homo sapiens, UniProt Q9Y4P1); assay type: functional;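 note: Fluorescence-based dose-response confirmation assay measuring inhibition of ATG4B activity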
T4 sequence (Q9Y4P1 whole entry): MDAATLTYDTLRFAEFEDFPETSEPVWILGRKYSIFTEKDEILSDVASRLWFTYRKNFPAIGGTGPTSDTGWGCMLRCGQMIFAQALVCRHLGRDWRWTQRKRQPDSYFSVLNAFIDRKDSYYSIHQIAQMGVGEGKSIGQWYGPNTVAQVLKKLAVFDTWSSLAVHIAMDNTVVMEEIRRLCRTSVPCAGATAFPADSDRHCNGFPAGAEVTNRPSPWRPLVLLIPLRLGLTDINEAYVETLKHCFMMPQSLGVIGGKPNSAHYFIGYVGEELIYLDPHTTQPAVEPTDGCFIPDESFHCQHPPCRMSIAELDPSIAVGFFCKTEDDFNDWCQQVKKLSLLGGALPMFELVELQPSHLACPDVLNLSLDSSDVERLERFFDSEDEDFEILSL

Phospholipase A2 = Phospholipase A2 (Homo sapiens, UniProt P04054); assay type: functional;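 note: confirmatory dose-response counterscreen on phospholipase A2, testing hits that came from an ultra-high-throughput screen for ATG4B inhibitors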
[4] = target: T5, Histone-lysine N-methyltransferase NSD2 (Homo sapiens, UniProt O96028); assay type: biochemical
T5 sequence (O96028 whole entry): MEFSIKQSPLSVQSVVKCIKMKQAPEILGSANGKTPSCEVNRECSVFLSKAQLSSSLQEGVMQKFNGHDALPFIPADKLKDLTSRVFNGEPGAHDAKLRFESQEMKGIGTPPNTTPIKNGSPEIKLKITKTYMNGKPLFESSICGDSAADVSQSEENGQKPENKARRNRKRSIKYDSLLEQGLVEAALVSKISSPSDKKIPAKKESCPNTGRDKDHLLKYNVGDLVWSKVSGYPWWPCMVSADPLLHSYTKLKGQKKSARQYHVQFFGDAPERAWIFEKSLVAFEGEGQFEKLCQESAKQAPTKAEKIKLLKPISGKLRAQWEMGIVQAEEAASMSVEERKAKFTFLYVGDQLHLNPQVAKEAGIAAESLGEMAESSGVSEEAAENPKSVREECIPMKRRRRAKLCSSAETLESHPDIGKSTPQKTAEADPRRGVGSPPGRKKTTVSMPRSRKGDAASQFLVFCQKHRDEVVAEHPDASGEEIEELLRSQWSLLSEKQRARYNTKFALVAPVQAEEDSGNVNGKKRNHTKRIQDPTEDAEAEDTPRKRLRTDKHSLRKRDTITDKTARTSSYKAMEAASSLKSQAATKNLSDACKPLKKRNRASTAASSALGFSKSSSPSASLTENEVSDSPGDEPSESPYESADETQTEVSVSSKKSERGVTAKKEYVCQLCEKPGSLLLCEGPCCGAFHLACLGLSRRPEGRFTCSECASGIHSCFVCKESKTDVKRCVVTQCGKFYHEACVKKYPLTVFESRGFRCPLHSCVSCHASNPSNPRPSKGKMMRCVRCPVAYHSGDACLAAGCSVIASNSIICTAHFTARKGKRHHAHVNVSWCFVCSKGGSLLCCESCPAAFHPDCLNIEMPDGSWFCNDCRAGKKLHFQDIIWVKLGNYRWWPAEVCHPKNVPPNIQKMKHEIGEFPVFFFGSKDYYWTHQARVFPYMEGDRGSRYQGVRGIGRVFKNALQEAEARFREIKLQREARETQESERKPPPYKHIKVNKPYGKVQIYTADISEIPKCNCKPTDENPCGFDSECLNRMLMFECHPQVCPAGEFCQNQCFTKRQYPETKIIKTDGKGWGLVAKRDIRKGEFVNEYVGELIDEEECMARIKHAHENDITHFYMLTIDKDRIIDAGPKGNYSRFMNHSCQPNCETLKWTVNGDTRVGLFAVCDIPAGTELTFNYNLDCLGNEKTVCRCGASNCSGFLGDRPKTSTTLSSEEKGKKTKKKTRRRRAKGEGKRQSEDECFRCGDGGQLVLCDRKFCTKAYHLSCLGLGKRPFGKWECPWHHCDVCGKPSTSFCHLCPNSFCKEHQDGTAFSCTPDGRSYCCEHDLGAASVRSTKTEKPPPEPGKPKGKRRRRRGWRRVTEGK

[5] = target: T6, Tyrosine-protein phosphatase non-receptor type 11 (Homo sapiens, UniProt Q06124); experiment: PTPN11 enzyme inhibitors – biochemical, selectivity assay for STEP inhibitor project, dose response (AID 602367); assay type: functional; conditions: read-out: IC50_Mean
T6 sequence (Q06124 whole entry): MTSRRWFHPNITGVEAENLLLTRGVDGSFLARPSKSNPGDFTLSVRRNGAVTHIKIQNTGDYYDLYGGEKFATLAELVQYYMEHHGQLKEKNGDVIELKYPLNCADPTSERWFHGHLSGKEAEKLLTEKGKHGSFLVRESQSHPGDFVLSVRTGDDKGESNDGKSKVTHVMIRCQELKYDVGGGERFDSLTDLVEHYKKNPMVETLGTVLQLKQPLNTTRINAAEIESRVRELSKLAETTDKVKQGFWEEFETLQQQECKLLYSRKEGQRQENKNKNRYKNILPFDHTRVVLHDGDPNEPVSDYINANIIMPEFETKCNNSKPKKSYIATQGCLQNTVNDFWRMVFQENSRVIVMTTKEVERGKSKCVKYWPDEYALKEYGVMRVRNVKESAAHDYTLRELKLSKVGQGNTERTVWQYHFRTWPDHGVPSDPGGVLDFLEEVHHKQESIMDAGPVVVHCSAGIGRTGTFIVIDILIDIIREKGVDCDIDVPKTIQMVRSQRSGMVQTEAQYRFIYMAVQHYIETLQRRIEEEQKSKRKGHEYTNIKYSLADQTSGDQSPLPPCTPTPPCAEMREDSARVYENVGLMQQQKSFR

[6] = target: T7, Tyrosine-protein phosphatase non-receptor type 5 (Homo sapiens, UniProt P54829); experiment: PTPN5 enzyme inhibition – biochemical, fluorescence intensity, uHTS hits, confirmation (AID 602372); assay type: functional; conditions: read-out: IC50_Mean
T7 sequence (P54829 whole entry): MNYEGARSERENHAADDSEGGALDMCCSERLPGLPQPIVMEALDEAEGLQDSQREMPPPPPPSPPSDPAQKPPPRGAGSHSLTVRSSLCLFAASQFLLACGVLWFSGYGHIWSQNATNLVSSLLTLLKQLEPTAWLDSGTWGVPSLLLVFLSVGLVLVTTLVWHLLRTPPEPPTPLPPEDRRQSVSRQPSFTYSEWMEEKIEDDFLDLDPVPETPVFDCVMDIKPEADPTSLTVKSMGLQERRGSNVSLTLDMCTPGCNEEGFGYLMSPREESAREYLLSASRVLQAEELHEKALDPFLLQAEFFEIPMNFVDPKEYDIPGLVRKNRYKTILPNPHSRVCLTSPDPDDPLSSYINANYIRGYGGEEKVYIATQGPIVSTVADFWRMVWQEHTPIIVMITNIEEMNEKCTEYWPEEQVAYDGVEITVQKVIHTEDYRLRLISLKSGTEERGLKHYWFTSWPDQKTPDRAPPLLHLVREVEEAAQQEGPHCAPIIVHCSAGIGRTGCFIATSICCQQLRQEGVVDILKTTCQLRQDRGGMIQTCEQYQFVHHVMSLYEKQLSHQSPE

[7] = target: Dual specificity protein phosphatase 3 (Homo sapiens, UniProt P51452); experiment: VHR phosphatase inhibition, dose response, selectivity assay for STEP inhibitor project, biochemical (AID 602374); assay type: functional; conditions: read-out: IC50_Mean
Melanocortin receptor 4 = Melanocortin receptor 4 (Homo sapiens, UniProt P32245); assay type: functional, cell-based;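 note: Cell-based assay with luminescence read-out, confirmatory dose-response testing for agonist activity of biased ligands at MC4R; human U2OS cells with tagged receptor and beta-arrestin; potency of agonists that increase receptor coupling to beta-arrestin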
[8] = target: Glucose-6-phosphate 1-dehydrogenase (Homo sapiens, UniProt P11413); experiment: inhibition of Homo sapiens G6PD, dose series – biochemical, fluorescence, selectivity assay for P. falciparum G6PD inhibitor project, dose response (AID 504792); assay type: functional
[9] = target: T8, Low molecular weight phosphotyrosine protein phosphatase (Homo sapiens, UniProt P24666); assay type: functional; conditions: read-out: IC50_Mean;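 note: Dose-response confirmation assay measuring inhibition of LMPTP enzyme activity by fluorescence intensity read-out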
T8 sequence (P24666 whole entry): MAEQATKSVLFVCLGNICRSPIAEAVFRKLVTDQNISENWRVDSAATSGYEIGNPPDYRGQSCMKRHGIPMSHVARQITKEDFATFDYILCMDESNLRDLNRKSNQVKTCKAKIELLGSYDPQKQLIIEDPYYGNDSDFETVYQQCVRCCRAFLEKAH

[10] = target: T9, Sentrin-specific protease 1 (Homo sapiens, UniProt Q9P0U3); experiment: Dose response confirmation of small molecule inhibitors of the catalytic domain of the SUMO protease, SENP1 in a FRET assay.; assay type: functional; conditions: read-out: IC50_Mean
T9 sequence (Q9P0U3 whole entry): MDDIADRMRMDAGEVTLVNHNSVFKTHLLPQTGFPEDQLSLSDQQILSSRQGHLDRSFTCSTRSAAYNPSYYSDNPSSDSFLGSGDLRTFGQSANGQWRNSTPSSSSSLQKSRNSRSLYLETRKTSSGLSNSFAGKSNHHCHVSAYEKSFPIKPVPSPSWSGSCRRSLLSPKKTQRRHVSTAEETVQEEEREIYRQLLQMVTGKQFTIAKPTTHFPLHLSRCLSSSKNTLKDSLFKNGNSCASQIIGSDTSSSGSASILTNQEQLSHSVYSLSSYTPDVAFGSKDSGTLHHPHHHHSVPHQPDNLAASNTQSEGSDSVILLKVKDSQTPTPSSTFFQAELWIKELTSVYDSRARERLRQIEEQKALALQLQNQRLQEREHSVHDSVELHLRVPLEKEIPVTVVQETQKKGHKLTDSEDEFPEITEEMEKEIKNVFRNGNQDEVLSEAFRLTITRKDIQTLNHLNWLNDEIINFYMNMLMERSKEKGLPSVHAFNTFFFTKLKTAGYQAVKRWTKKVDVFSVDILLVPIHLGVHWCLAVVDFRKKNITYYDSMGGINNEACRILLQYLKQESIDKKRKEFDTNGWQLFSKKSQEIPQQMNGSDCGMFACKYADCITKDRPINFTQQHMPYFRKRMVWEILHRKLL

P388/ADR = experiment: cells; assay type: functional; conditions: Mus musculus

Melanocortin receptor 4, sequence (P32245 whole entry): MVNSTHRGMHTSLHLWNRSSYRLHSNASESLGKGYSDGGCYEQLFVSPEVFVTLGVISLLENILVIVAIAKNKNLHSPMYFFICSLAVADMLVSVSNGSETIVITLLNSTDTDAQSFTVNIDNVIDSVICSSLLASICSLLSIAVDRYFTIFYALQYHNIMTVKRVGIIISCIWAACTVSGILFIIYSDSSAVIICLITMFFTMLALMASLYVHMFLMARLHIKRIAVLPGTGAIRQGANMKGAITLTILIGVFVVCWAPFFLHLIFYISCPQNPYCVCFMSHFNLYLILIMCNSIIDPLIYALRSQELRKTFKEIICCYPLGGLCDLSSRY
Dual specificity protein phosphatase 3, sequence (P51452 whole entry): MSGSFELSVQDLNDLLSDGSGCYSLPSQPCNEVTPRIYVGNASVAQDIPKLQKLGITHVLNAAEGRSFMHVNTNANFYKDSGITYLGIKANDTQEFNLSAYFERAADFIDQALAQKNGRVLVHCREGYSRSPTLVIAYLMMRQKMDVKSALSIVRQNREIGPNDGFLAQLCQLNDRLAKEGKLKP
Glucose-6-phosphate 1-dehydrogenase, sequence (P11413 whole entry): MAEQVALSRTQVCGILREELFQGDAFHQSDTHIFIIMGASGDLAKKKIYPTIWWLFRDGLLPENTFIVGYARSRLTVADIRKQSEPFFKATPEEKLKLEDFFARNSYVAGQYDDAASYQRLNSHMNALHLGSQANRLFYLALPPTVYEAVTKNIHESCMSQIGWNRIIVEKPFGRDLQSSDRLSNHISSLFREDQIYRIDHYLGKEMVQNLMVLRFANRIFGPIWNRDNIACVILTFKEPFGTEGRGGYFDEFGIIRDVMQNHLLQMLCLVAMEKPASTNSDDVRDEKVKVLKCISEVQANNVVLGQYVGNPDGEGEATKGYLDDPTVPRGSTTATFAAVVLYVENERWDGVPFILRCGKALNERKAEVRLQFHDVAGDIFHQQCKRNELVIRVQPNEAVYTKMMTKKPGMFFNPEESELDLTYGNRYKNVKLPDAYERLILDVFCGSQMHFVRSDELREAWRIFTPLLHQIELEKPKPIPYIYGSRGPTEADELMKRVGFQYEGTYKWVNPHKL
Phospholipase A2, sequence (P04054 whole entry): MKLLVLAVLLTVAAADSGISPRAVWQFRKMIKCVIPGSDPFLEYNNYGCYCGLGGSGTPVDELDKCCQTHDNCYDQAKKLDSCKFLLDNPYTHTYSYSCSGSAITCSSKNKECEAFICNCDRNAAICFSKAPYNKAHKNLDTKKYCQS

SMILES: Cc1ccccc1NC1=NC(=O)/C(=C/c2cccn2-c2cccc(C(=O)O)c2)S1
EC50 [1]: > 300 µM (not active)
EC50 [2]: 70 µM (active)
IC50 [3]: 1.09 µM (not active)
IC50 (Cysteine protease ATG4B): 10.2 µM (active)
IC50 (Phospholipase A2): 8.6 µM (active)
AC50 [4]: > 20 µM (inactive)

SMILES: O=C(CCN1C(=O)/C(=C/C=C/c2ccccc2)SC1=S)Nc1ccccn1
EC50 (Melanocortin receptor 4): > 89.2 µM (inactive)

SMILES: Cn1c(=O)[nH]c(=O)c2c1nc(SCCN1CCCCC1)n2CCCc1ccccc1
IC50 [8]: > 80 µM (inactive)
IC50 [5]: 0.599 µM (active)
IC50 [6]: 34.9 µM (inactive)
IC50 [7]: 0.57 µM (active)

SMILES: CSc1sc(-c2nnc(S)n2C)c2c1C=CCC2
IC50 [9]: 38.2 µM (inactive)

SMILES: COc1cccc2c1C(=O)c1c(O)c3c(c(O)c1C2=O)C[C@@](O)(C(C)=O)C[C@@H]3OC1CC(O)C(O)C(C)O1 (some centres undefined)
GI50 (P388/ADR): 0.293 µM (active)

More lines, now with the values ahead:

IC50 [5]: 11.8 µM (active)
IC50 [6]: 36.1 µM (inactive)
IC50 [7]: 3.08 µM (active)
SMILES: O=C(NCCCn1ccnc1)C(Cc1ccccc1)N1C(=O)c2ccccc2C1=O (centres undefined)

EC50 (Melanocortin receptor 4): > 89.2 µM (inactive)
SMILES: Cc1ccc(C(=O)NCCNc2nc3cc(C)c(C)cc3cc2C)cc1

EC50 (Melanocortin receptor 4): > 89.2 µM (inactive)
SMILES: COc1ccc2c(c1)CCc1c(C(=O)Nc3ccn(Cc4ccc(C)cc4)n3)noc1-2

IC50 [10]: 14.1 µM (active)
SMILES: COCCNC(=O)c1cccc2c1C(=O)c1ccc(N3CCOCC3)cc1S2(=O)=O
